Assay results from PMC2760932 (Journal of medicinal chemistry, 2009).

Key:
[1] = biological target: human D3 dopamine receptor (Homo sapiens, UniProt P35462); experiment: Competition binding, [125I]IABN, HEK 293 cells transfected with human D3; conditions: for D4/D3: Table 2, ratio of Ki values
dopamine D3 receptor = dopamine D3 receptor (Homo sapiens, UniProt P35462); experiment: Quinpirole-stimulated mitogenesis assay, D3
D2 receptor = D2 receptor (Homo sapiens, UniProt P14416); experiment: D2 binding assay by the contractor
Sequence of D2 receptor (P14416 whole entry): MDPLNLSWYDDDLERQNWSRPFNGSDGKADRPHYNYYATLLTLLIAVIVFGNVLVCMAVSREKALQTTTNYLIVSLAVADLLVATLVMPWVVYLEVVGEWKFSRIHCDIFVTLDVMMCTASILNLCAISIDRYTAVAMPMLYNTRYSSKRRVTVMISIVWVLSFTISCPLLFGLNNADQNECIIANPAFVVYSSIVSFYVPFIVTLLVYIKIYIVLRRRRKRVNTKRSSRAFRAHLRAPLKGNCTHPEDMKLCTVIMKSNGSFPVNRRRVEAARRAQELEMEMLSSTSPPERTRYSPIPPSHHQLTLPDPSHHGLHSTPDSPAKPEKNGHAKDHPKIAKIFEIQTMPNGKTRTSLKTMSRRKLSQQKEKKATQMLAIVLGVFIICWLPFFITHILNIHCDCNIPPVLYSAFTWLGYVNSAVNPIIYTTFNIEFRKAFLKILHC

Sequence of human D3 dopamine receptor (P35462 whole entry): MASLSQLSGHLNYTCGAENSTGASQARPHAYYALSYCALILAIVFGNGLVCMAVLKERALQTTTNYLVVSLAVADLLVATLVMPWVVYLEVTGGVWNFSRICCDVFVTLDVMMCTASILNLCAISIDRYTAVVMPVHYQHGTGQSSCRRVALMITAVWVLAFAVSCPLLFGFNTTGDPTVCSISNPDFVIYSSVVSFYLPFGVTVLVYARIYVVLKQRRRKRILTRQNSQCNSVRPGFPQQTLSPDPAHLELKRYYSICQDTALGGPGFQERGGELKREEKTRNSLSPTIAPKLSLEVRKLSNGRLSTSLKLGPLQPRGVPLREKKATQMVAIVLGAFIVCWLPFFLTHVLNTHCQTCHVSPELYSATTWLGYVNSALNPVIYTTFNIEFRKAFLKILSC
Sequence of dopamine D3 receptor (P35462 whole entry): as above

| Ki (D2 receptor) [µM] | D4/D3 [1] | SMILES | also measured |
| --- | --- | --- | --- |
|  |  | COc1ccccc1N1CCN(CCCCNC(=O)c2cc3cc(I)ccc3o2)CC1 [Compound 14, 5-Iodo-N-(4-(4-(2-methoxy-phenyl)piperazin-1-yl)butyl)benzofuran-2-carboxamide] | D3 selectivity over D2 (binding) ([1]; from Ki values): > 100 fold |
| > 0.4 |  | COc1ccc2[nH]c(C(=O)NCCC(O)CN3CCN(c4ccccc4OC)CC3)cc2c1 (centres unmarked) [Compound 30, N-(3-Hydroxy-4-(4-(2-methoxy-phenyl)piperazin-1-yl)butyl)-5-methoxy-1H-indole-2-carboxamide] | EC50 (dopamine D3 receptor): 0.0137 µM |
|  | >1300 | O=C(NCCC(O)CN1CCN(c2cccc(Cl)c2Cl)CC1)c1cc2cc(I)ccc2o1 (centres unmarked) [Compound 33, N-(4-(4-(2,3-Dichloro-phenyl)piperazin-1-yl)-3-hydroxybutyl)-5-iodobenzofuran-2-carboxamide] |  |
|  |  | COc1ccccc1N1CCN(CC(O)CCNC(=O)c2cc3cc(F)ccc3[nH]2)CC1 (centres unmarked) [Compound 26, 5-Fluoro-N-(3-hydroxy-4-(4-(2-methoxy-phenyl)piperazin-1-yl)butyl)-1H-indole-2-carboxamide] | D3 selectivity over D2 receptor mediated mitogenesis (dopamine D3 receptor): ~100 fold |
| > 0.4 |  | COc1ccc2[nH]c(C(=O)NCCC(O)CN3CCN(c4cccc(Cl)c4Cl)CC3)cc2c1 (centres unmarked) [Compound 29, N-(4-(4-(2,3-Dichloro-phenyl)piperazin-1-yl)-3-hydroxybutyl)-5-methoxy-1H-indole-2-carboxamide] | Ki [1]: 0.001 µM |
|  | >1600 | O=C(NCCC(O)CN1CCN(c2cccc(Cl)c2Cl)CC1)c1cc2ccccc2o1 (centres unmarked) [Compound 31, N-(4-(4-(2,3-Dichloro-phenyl)piperazin-1-yl)-3-hydroxybutyl)benzofuran-2-carboxamide] |  |
